Biological target: human TYK2 (JH2domain-pseudokinase) (Homo sapiens (Human), UniProt P29597)
Assay: TYK2 JH2 Domain Binding Assay (KINOMEscan, DiscoveRx)
Details: 11-point dilution, duplicate
Outline: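 TYK2 JH2 (G556–D888)–NFkB DBD fusion, DNA-tagged, from HEK293 extracts (<0.1 nM) competed against immobilised biotinylated ligand for 1 h at room temperature, 0.9% DMSO. Bead-retained kinase quantified by qPCR; Kd from 11-point 3-fold series (top 30,000 nM, duplicate), Hill fit with slope −1.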

Sequence of human TYK2 (JH2domain-pseudokinase) (P29597 556-888): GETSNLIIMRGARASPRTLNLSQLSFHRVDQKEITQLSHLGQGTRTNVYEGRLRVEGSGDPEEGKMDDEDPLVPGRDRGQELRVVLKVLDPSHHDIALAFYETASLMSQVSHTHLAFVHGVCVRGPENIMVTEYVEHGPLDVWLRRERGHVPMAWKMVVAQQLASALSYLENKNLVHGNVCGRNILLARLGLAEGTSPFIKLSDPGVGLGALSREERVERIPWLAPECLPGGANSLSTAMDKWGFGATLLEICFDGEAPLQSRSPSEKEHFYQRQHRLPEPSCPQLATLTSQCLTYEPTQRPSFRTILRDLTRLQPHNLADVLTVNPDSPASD

| Structure (SMILES) | Kd [nM] |
| --- | --- |
| Cc1cc(-c2ccc(Nc3cc(Nc4cc5n(n4)CCOC5)nc4[nH]c(C(F)F)nc34)c(S(C)(=O)=O)c2)nn1C [I-526] | < 0.1 |
| Cc1cc(Nc2cc(Nc3ccc(-c4ccn(C5CC5)n4)cc3S(C)(=O)=O)c3nc(C(F)F)[nH]c3n2)nc(C)n1 [I-527] | 0.1 to 0.5 |
| Cc1cc(Nc2cc(Nc3ccc(-c4ccn(C5CC5)n4)cc3S(C)(=O)=O)c3nc(C)[nH]c3n2)nc(C)n1 [I-528] | 0.1 to 0.5 |
| Cc1cc(Nc2cc(Nc3ccc([C@H]4CCCCO4)cc3S(C)(=O)=O)c3nc(C)[nH]c3n2)nc(C)n1 [I-529] | < 0.1 |
| Cc1cc(Nc2cc(Nc3ccc([C@@H]4CCCCO4)cc3S(C)(=O)=O)c3nc(C)[nH]c3n2)nc(C)n1 [I-530] | < 0.1 |
| CS(=O)(=O)c1ccccc1Nc1cc(Nc2ccc3c(n2)CCOC3)nc2[nH]c(C(F)F)nc12 [I-531] | < 0.1 |
| Cc1nc2c(Nc3ccccc3S(C)(=O)=O)cc(Nc3ccc4c(n3)CCOC4)nc2[nH]1 [I-532] | < 0.1 |
| Cc1c(-c2ccc(Nc3cc(Nc4ccc(C(C)C)c(C#N)n4)nc4[nH]c(C(F)F)nc34)c(S(C)(=O)=O)c2)cnn1C [I-533] | 0.1 to 0.5 |
| Cc1cc(C)c(-c2ccc(Nc3cc(NC(=O)C4CC4)nc4[nH]c(C(F)F)nc34)c(S(C)(=O)=O)c2)o1 [I-534] | 1 to 10 |
| Cc1nc2c(Nc3ccc(C4CCC(C)(C)CO4)cc3S(C)(=O)=O)cc(NC(=O)C3CC3)nc2[nH]1 (stereo not drawn) [I-536, N-(7-((4-(5,5-dimethyltetrahydro-2H-pyran-2-yl)-2-(methylsulfonyl)phenyl)amino)-2-methyl-3H-imidazo[4,5-b]pyridin-5-yl)cyclopropanecarboxamide] | < 0.1 |
| Cc1c(-c2ccc(Nc3cc(NC(=O)C4CC4)nc4[nH]c(C(F)F)nc34)c(S(C)(=O)=O)c2)cnn1C1CC1 [I-537, N-(7-((4-(1-cyclopropyl-5-methyl-1H-pyrazol-4-yl)-2-(methylsulfonyl)phenyl)amino)-2-(difluoromethyl)-3H-imidazo[4,5-b]pyridin-5-yl)cyclopropanecarboxamide] | < 0.1 |
| COc1c(Nc2cc(Nc3cccc(C#N)n3)nc3[nH]c(C(F)F)nc23)cccc1-c1ncnn1C [I-538] | 0.5 to 1 |
| COc1c(Nc2cc(Nc3cccc(C#N)n3)nc3[nH]c(C)nc23)cccc1-c1ncnn1C [I-539, 6-((7-((2-methoxy-3-(1-methyl-1H-1,2,4-triazol-5-yl)phenyl)amino)-2-methyl-3H-imidazo[4,5-b]pyridin-5-yl)amino)picolinonitrile] | 0.5 to 1 |
| COc1c(Nc2cc(Nc3cccc(C#N)n3)nc3[nH]c(C)nc23)cccc1-c1cnn(C)n1 [I-540, 6-((7-((2-methoxy-3-(2-methyl-2H-1,2,3-triazol-4-yl)phenyl)amino)-2-methyl-3H-imidazo[4,5-b]pyridin-5-yl)amino)picolinonitrile] | 0.1 to 0.5 |
| COc1c(Nc2cc(Nc3cccc(C#N)n3)nc3[nH]c(C(F)F)nc23)cccc1-c1nc(C)nn1C [I-541, 6-((2-(difluoromethyl)-7-((3-(1,3-dimethyl-1H-1,2,4-triazol-5-yl)-2-methoxyphenyl)amino)-3H-imidazo[4,5-b]pyridin-5-yl)amino)picolinonitrile] | 0.5 to 1 |
| COc1c(Nc2cc(Nc3cccc(C#N)n3)nc3[nH]c(C)nc23)cccc1-c1nc(C)nn1C [I-542, 6-((7-((3-(1,3-dimethyl-1H-1,2,4-triazol-5-yl)-2-methoxyphenyl)amino)-2-methyl-3H-imidazo[4,5-b]pyridin-5-yl)amino)picolinonitrile] | 0.5 to 1 |
| COc1c(Nc2cc(Nc3cccc(C#N)n3)nc3[nH]c(C)nc23)cccc1-c1nc(C)cs1 [I-543, 6-((7-((2-methoxy-3-(4-methylthiazol-2-yl)phenyl)amino)-2-methyl-3H-imidazo[4,5-b]pyridin-5-yl)amino)picolinonitrile] | 1 to 10 |
| Cc1nc2c(Nc3ccc(C4CCCO4)cc3S(C)(=O)=O)cc(Nc3cccc(C#N)n3)nc2[nH]1 (stereo not drawn) [I-544, 6-((2-methyl-7-((2-(methylsulfonyl)-4-(tetrahydrofuran-2-yl)phenyl)amino)-3H-imidazo[4,5-b]pyridin-5-yl)amino)picolinonitrile] | 0.1 to 0.5 |

| Structure (SMILES) | Kd [nM] |
| --- | --- |
| Cc1nc(-c2ccc(Nc3cc(NC(=O)C4CC4)nc4[nH]c(C(F)F)nc34)c(S(C)(=O)=O)c2)cs1 [I-545, N-(2-(difluoromethyl)-7-((2-(methylsulfonyl)-4-(2-methylthiazol-4-yl)phenyl)amino)-3H-imidazo[4,5-b]pyridin-5-yl)cyclopropanecarboxamide] | 0.1 to 0.5 |
| C#Cc1cccc(Nc2cc(Nc3ccccc3S(C)(=O)=O)c3nc(C(F)F)[nH]c3n2)n1 [I-546, 2-(difluoromethyl)-N5-(6-ethynylpyridin-2-yl)-N7-(2-(methylsulfonyl)phenyl)-3H-imidazo[4,5-b]pyridine-5,7-diamine] | 1 to 10 |
| C#Cc1cccc(Nc2cc(Nc3ccccc3S(C)(=O)=O)c3nc(C)[nH]c3n2)n1 [I-547, N5-(6-ethynylpyridin-2-yl)-2-methyl-N7-(2-(methylsulfonyl)phenyl)-3H-imidazo[4,5-b]pyridine-5,7-diamine] | < 0.1 |
| CN=[S@@](C)(=O)c1ccccc1Nc1cc(NC(=O)C2CC2)nc2[nH]c(C)nc12 [I-549, N-(7-((2-(N,S-dimethylsulfonimidoyl)phenyl)amino)-2-methyl-3H-imidazo[4,5-b]pyridin-5-yl)cyclopropanecarboxamide] | 1 to 10 |
| Cc1nc2c(Nc3ccc([C@@H]4CCC(C)(C)CO4)cc3S(C)(=O)=O)cc(NC(=O)C3CC3)nc2[nH]1 [I-550, (S)—N-(7-((4-(5,5-dimethyltetrahydro-2H-pyran-2-yl)-2-(methylsulfonyl)phenyl)amino)-2-methyl-3H-imidazo[4,5-b]pyridin-5-yl)cyclopropanecarboxamide] | < 0.1 |
| Cc1nc2c(Nc3ccc([C@H]4CCC(C)(C)CO4)cc3S(C)(=O)=O)cc(NC(=O)C3CC3)nc2[nH]1 [I-551, (R)—N-(7-((4-(5,5-dimethyltetrahydro-2H-pyran-2-yl)-2-(methylsulfonyl)phenyl)amino)-2-methyl-3H-imidazo[4,5-b]pyridin-5-yl)cyclopropanecarboxamide] | 0.5 to 1 |
| CS(=O)(=O)c1cc(F)ccc1Nc1cc(Nc2cccc(C#N)n2)nc2[nH]c(C(F)F)nc12 [I-552, 6-((2-(difluoromethyl)-7-((4-fluoro-2-(methylsulfonyl)phenyl)amino)-3H-imidazo[4,5-b]pyridin-5-yl)amino)picolinonitrile] | 0.1 to 0.5 |
| Cc1nc2c(Nc3ccc(F)cc3S(C)(=O)=O)cc(Nc3cccc(C#N)n3)nc2[nH]1 [I-553, 6-((7-((4-fluoro-2-(methylsulfonyl)phenyl)amino)-2-methyl-3H-imidazo[4,5-b]pyridin-5-yl)amino)picolinonitrile] | 0.1 to 0.5 |
| COc1cc(-c2nn(C)cc2C)ccc1Nc1cc(NC(=O)C2CC2)nc2[nH]c(C(F)F)nc12 [I-554, N-(2-(difluoromethyl)-7-((4-(1,4-dimethyl-1H-pyrazol-3-yl)-2-methoxyphenyl)amino)-3H-imidazo[4,5-b]pyridin-5-yl)cyclopropanecarboxamide] | 1 to 10 |
| COc1cc(-c2nn(C)cc2C)ccc1Nc1cc(NC(=O)C2CC2)nc2[nH]c(C)nc12 [I-555, N-(7-((4-(1,4-dimethyl-1H-pyrazol-3-yl)-2-methoxyphenyl)amino)-2-methyl-3H-imidazo[4,5-b]pyridin-5-yl)cyclopropanecarboxamide] | 0.5 to 1 |
| COc1c(Nc2cc(NC(=O)C3CC3)nc3[nH]c(C(F)F)nc23)ccc(-c2nn(C)cc2C)c1F [I-556, N-(2-(difluoromethyl)-7-((4-(1,4-dimethyl-1H-pyrazol-3-yl)-3-fluoro-2-methoxyphenyl)amino)-3H-imidazo[4,5-b]pyridin-5-yl)cyclopropanecarboxamide] | > 10 |
| COc1c(Nc2cc(NC(=O)C3CC3)nc3[nH]c(C)nc23)ccc(-c2nn(C)cc2C)c1F [I-557, N-(7-((4-(1,4-dimethyl-1H-pyrazol-3-yl)-3-fluoro-2-methoxyphenyl)amino)-2-methyl-3H-imidazo[4,5-b]pyridin-5-yl)cyclopropanecarboxamide] | > 10 |
| COc1c(Nc2cc(Nc3cccc(C#N)n3)nc3[nH]c(C(F)F)nc23)cccc1-c1nccs1 [I-558, 6-((2-(difluoromethyl)-7-((2-methoxy-3-(thiazol-2-yl)phenyl)amino)-3H-imidazo[4,5-b]pyridin-5-yl)amino)picolinonitrile] | 1 to 10 |
| COc1cc(-c2nc(C)c(C)s2)ccc1Nc1cc(NC(=O)C2CC2)nc2[nH]c(C)nc12 [I-559, N-(7-((4-(4,5-dimethylthiazol-2-yl)-2-methoxyphenyl)amino)-2-methyl-3H-imidazo[4,5-b]pyridin-5-yl)cyclopropanecarboxamide] | 1 to 10 |
| Cc1nc2c(Nc3ccc(-c4nn(C)c(C)c4C)cc3S(C)(=O)=O)cc(NC(=O)C3CC3)nc2[nH]1 [I-560, N-(2-methyl-7-((2-(methylsulfonyl)-4-(1,4,5-trimethyl-1H-pyrazol-3-yl)phenyl)amino)-3H-imidazo[4,5-b]pyridin-5-yl)cyclopropanecarboxamide] | < 0.1 |
| Cc1nc2c(Nc3ccc(-c4oc(C)cc4C)cc3S(C)(=O)=O)cc(NC(=O)C3CC3)nc2[nH]1 [I-561, N-(7-((4-(3,5-dimethylfuran-2-yl)-2-(methylsulfonyl)phenyl)amino)-2-methyl-3H-imidazo[4,5-b]pyridin-5-yl)cyclopropanecarboxamide] | 1 to 10 |
| Cc1nc2c(Nc3ccc(-c4cnn(C5CC5)c4C)cc3S(C)(=O)=O)cc(NC(=O)C3CC3)nc2[nH]1 [I-562, N-(7-((4-(1-cyclopropyl-5-methyl-1H-pyrazol-4-yl)-2-(methylsulfonyl)phenyl)amino)-2-methyl-3H-imidazo[4,5-b]pyridin-5-yl)cyclopropanecarboxamide] | < 0.1 |
| Cc1cc(Nc2cc(Nc3ccc(C4=NC(C)(C)CS4)cc3S(C)(=O)=O)c3nc(C(F)F)[nH]c3n2)nc(C)n1 [I-563, 2-(difluoromethyl)-N7-(4-(4,4-dimethyl-4,5-dihydrothiazol-2-yl)-2-(methylsulfonyl)phenyl)-N5-(2,6-dimethylpyrimidin-4-yl)-3H-imidazo[4,5-b]pyridine-5,7-diamine] | 1 to 10 |

From patent US10647713B2 (Nimbus Lakshmi, Inc., priority 2016, dated 2020)
